Patent US11549142B2, “CETP inhibitors for therapeutic use” (Hoffmann-La Roche Inc., priority 2013, dated 2023)
Values joined by “and” are separate entries in the source; they are usually repeats but may differ in a detail not shown here. Equal entries are not always repeated. “Also recorded” adds a separate entry of the source.

System: patients recently hospitalized for an Acute Coronary Syndrome (ACS)
Experiment: dal-OUTCOMES phase III trial with pharmacogenomic (GWAS) analysis of cardiovascular events by ADCY9 genotype
Format: in vivo, human
Parameters: key to Predicted response: R: Responsive; PR: Partial Responsive; NR: Non Responsive
Description: The dalcetrapib mortality and morbidity trial (dal-OUTCOMES) was a double-blind, randomized, placebo-controlled, parallel group, multi-centre study in stable CHD patients recently hospitalized for acute coronary syndrome (ACS). The study was conducted to test the hypothesis that CETP inhibition will reduce the risk of recurrent cardiovascular events in patients with recent ACS by raising levels of HDL-C through CETP inhibition. Eligible patients entered a single-blind placebo run-in period of approximately 4 to 6 weeks to allow for patients to stabilize and for completion of planned revascularization procedures. At the end of the run-in period, eligible patients in stable condition were randomized in a 1:1 ratio to 600 mg of dalcetrapib or placebo on top of evidence-based medical care for ACS. Dalcetrapib is an inhibitor of cholesterol-ester transfer protein (CETP). […] The trial was interrupted in May 2012 by the DSMB on grounds of futility.
Dal-OUTCOMES trial (NC20971) was a double blind, randomized, placebo-controlled, parallel group, multi-center, phase III study to assess the safety and efficacy of the CETP inhibitor dalcetrapib in patients recently hospitalized for an Acute Coronary Syndrome (ACS). At time of the interim analysis the study included 15871 randomized patients, distributed over two treatment arms: placebo (7933 patients) and dalcetrapib (600 mg daily; 7938 patients). […] The dal-OUTCOMES study details can be found in G. Schwartz et al., N. Engl. J. Med. 367; 22, 2012.\
Whole genome analysis was performed in GLP-environment at the Beaulieu-Saucier Pharmacogenomics Centre. The Infinium® HumanOmni25Exome-8v1_A BeadChip (Illumina, San Diego, Calif.) including 2,567,845 genomic markers was used and processed according to the manufacturer's specifications. Approximately 200 ng of genomic DNA was whole-genome amplified, fragmented, and hybridized to locus-specific probes bound to the surface of each BeadChip. DNA was genotyped using a fluorescently labelled single base extension assay. BeadChips were scanned and analyzed using the Illumina® iScan Reader. Infinium® process controls were monitored and all results were within manufacturer's specifications. Scanned images were analyzed using Illumina's GenomeStudio® version 2011.1 with the GenTrain 2.0 cluster algorithm, using a No-Call threshold of 0.15, without manual cluster adjustment and using the manufacturer's Illumina® HumanOmni25Exome-8v1_A cluster file. […] Three genotyping files in PLINK format generated by GenomeStudio® were combined and transformed to binary PLINK format.
Genotyping completion rate for samples and SNPs was set to 98%. SNPs with genotyping plate bias (based on the 96 well plates used to dilute DNA samples) were flagged but not removed as the effect of genetic ancestry could not be excluded. Pairwise IBD was used to conduct close familial relationship checks. We flagged and removed all but one pair-member of related pairs and sample duplicates (IBS2*ratio>0.80) based on a selection of uncorrelated SNPs (r^2<0.1). The pairwise IBS matrix was used as a distance metric to identify cryptic relatedness among samples and sample outliers by multi-dimensional scaling (MDS). The first two MDS components of each subject were plotted including the genotypes of HapMap CEU, JPT-CHB, and YRI data (keeping only founder individuals). Outliers from the main Caucasian cluster were flagged and removed by k-nearest neighbour. (Supplementary FIG. 1) The scree plot and the cumulative explained variance were computed using the smartpca program of the EIGENSOFT suite (version 3.0). Options used were a numoutlieriter (maximum number of outlier removal iterations) of 0 (turned off) and altnormstyle (normalization formula) equal to NO. ^4 (Supplementary FIG. 2)
A statistical analysis plan was developed at the Beaulieu-Saucier Pharmacogenomics Centre and the final version approved prior to genotyping completion in October 2012. […]

**Q.** With `CCC(CC)CC1(C(=O)Nc2ccccc2SC(=O)C(C)C)CCCCC1` [dalcetrapib, thioisobutyric acid S-(2-{[1-(2-ethyl-butyl)-cyclohexanecarbonyl]-amino}-phenyl) ester] as the compound, how does the “event rate in the primary efficacy endpoint (cardiovascular events), dalcetrapib arm compared to the placebo arm” value (all patients, 600 mg daily) read?
**A.** Its value is “lack of efficacy relative to statins alone; also recorded: did not show a significant reduction in cardiovascular events; also recorded: no evidence of reduction of the event rate”.

**Q.** What about the HDL-c (patients on treatment, dal-OUTCOMES) of the same compound?
**A.** Its HDL-c is “marked increase”.

**Q.** What about the “HR for events, additive genetic effect of one allele” value (rs1967309, dal-Outcomes treatment arm, Cox proportional hazards) of the same compound?
**A.** The value was 0.65 (95% CI 0.55, 0.76).

**Q.** And the “HR (95% CI) for time to events, dalcetrapib treatment arm only, genotype comparison” value (from here on “HR (95% CI) for time to events”) (rs1967309 AA vs GG)?
**A.** Its value is 0.40 (95% CI 0.28, 0.57) and 0.4 (0.28, 0.57).

**Q.** And the “HR (95% CI) for time to events” value (rs1967309 GA vs GG)?
**A.** The value was 0.68 (95% CI 0.55, 0.84) and 0.68 (0.56, 0.84).

**Q.** What about the Predicted response (rs1967309 genotype AA) of the same compound?
**A.** Its Predicted response is “R”.

**Q.** And the “HR for time to events, dalcetrapib treatment arm versus placebo arm” value (rs1967309 genotype GA)?
**A.** Its value is 0.94.

**Q.** What about the Predicted response (rs1967309 genotype GA) of the same compound?
**A.** The Predicted response was “PR”.

**Q.** What about the “HR for time to events, dalcetrapib treatment arm versus placebo arm” value (rs1967309 genotype GG) of the same compound?
**A.** The value was 1.27.

**Q.** What about the Predicted response (rs1967309 genotype GG) of the same compound?
**A.** Its Predicted response is “NR”.

**Q.** What about the “HR (95% CI) for time to events” value (rs2239310 AG vs AA) of the same compound?
**A.** The value was 0.71 (0.58,0.87).

**Q.** What about the “HR (95% CI) for time to events” value (rs2239310 GG vs AA) of the same compound?
**A.** The value was 0.43 (0.29, 0.63).

**Q.** And the “HR for time to events, dalcetrapib treatment arm versus placebo arm” value (rs2239310 genotype AA)?
**A.** The value was 1.16.

**Q.** And the Predicted response (rs2239310 genotype AA)?
**A.** The Predicted response was “NR”.

**Q.** What about the “HR for time to events, dalcetrapib treatment arm versus placebo arm” value (rs2239310 genotype AG) of the same compound?
**A.** The value was 0.96.

**Q.** What about the Predicted response (rs2239310 genotype AG) of the same compound?
**A.** Its Predicted response is “PR”.

**Q.** And the “HR for time to events, dalcetrapib treatment arm versus placebo arm” value (rs2239310 genotype GG)?
**A.** The value was 0.6.

**Q.** What about the Predicted response (rs2239310 genotype GG) of the same compound?
**A.** Its Predicted response is “R”.

**Q.** And the “HR (95% CI) for time to events” value (rs2283497 AA vs CC)?
**A.** The value was 0.53 (0.37, 0.76).

**Q.** What about the “HR (95% CI) for time to events” value (rs2283497 CA vs CC) of the same compound?
**A.** Its value is 0.83 (0.67, 1.02).

**Q.** What about the “HR for time to events, dalcetrapib treatment arm versus placebo arm” value (rs2283497 genotype AA) of the same compound?
**A.** The value was 0.57.

**Q.** And the Predicted response (rs2283497 genotype AA)?
**A.** Its Predicted response is “R”.

**Q.** What about the “HR for time to events, dalcetrapib treatment arm versus placebo arm” value (rs2283497 genotype CA) of the same compound?
**A.** Its value is 0.99.

**Q.** And the Predicted response (rs2283497 genotype CA)?
**A.** Its Predicted response is “PR”.

**Q.** And the “HR for time to events, dalcetrapib treatment arm versus placebo arm” value (rs2283497 genotype CC)?
**A.** Its value is 1.23.

**Q.** What about the Predicted response (rs2283497 genotype CC) of the same compound?
**A.** Its Predicted response is “NR”.

**Q.** And the “HR (95% CI) for time to events” value (rs2531967 AA vs GG)?
**A.** Its value is 0.5 (0.29, 0.86).

**Q.** What about the “HR (95% CI) for time to events” value (rs2531967 GA vs GG) of the same compound?
**A.** The value was 0.75 (0.61, 0.93).

**Q.** And the “HR for time to events, dalcetrapib treatment arm versus placebo arm” value (rs2531967 genotype AA)?
**A.** The value was 0.67.

**Q.** And the Predicted response (rs2531967 genotype AA)?
**A.** The Predicted response was “R”.

**Q.** And the “HR for time to events, dalcetrapib treatment arm versus placebo arm” value (rs2531967 genotype GA)?
**A.** Its value is 0.86.

**Q.** What about the Predicted response (rs2531967 genotype GA) of the same compound?
**A.** The Predicted response was “PR”.

**Q.** What about the “HR for time to events, dalcetrapib treatment arm versus placebo arm” value (rs2531967 genotype GG) of the same compound?
**A.** Its value is 1.12.

**Q.** What about the Predicted response (rs2531967 genotype GG) of the same compound?
**A.** The Predicted response was “NR”.

**Q.** What about the “HR (95% CI) for time to events” value (rs3730119 AA vs GG) of the same compound?
**A.** The value was 0.49 (0.22, 1.1).

**Q.** And the “HR (95% CI) for time to events” value (rs3730119 GA vs GG)?
**A.** Its value is 0.78 (0.62, 0.99).

**Q.** What about the “HR for time to events, dalcetrapib treatment arm versus placebo arm” value (rs3730119 genotype AA) of the same compound?
**A.** Its value is 0.48.

**Q.** What about the Predicted response (rs3730119 genotype AA) of the same compound?
**A.** Its Predicted response is “R”.

**Q.** And the “HR for time to events, dalcetrapib treatment arm versus placebo arm” value (rs3730119 genotype GA)?
**A.** The value was 0.86.

**Q.** What about the Predicted response (rs3730119 genotype GA) of the same compound?
**A.** Its Predicted response is “PR”.

**Q.** And the “HR for time to events, dalcetrapib treatment arm versus placebo arm” value (rs3730119 genotype GG)?
**A.** Its value is 1.08.

**Q.** And the Predicted response (rs3730119 genotype GG)?
**A.** Its Predicted response is “NR”.

**Q.** And the “HR (95% CI) for time to events” value (rs4786454 AA vs GG)?
**A.** The value was 0.37 (0.15, 0.9).

**Q.** What about the “HR (95% CI) for time to events” value (rs4786454 GA vs GG) of the same compound?
**A.** The value was 0.69 (0.54, 0.87).

**Q.** What about the “HR for time to events, dalcetrapib treatment arm versus placebo arm” value (rs4786454 genotype AA) of the same compound?
**A.** The value was 0.52.

**Q.** What about the Predicted response (rs4786454 genotype AA) of the same compound?
**A.** The Predicted response was “R”.

**Q.** What about the “HR for time to events, dalcetrapib treatment arm versus placebo arm” value (rs4786454 genotype GA) of the same compound?
**A.** The value was 0.89.

**Q.** What about the Predicted response (rs4786454 genotype GA) of the same compound?
**A.** The Predicted response was “PR”.

**Q.** And the “HR for time to events, dalcetrapib treatment arm versus placebo arm” value (rs4786454 genotype GG)?
**A.** Its value is 1.06.

**Q.** What about the Predicted response (rs4786454 genotype GG) of the same compound?
**A.** Its Predicted response is “NR”.

**Q.** And the “HR (95% CI) for time to events” value (rs8049452 AA vs GG)?
**A.** Its value is 1.98 (1.51, 2.61).

**Q.** What about the “HR (95% CI) for time to events” value (rs8049452 GA vs GG) of the same compound?
**A.** The value was 1.26 (0.99, 1.6).

**Q.** What about the “HR for time to events, dalcetrapib treatment arm versus placebo arm” value (rs8049452 genotype AA) of the same compound?
**A.** Its value is 1.55.

**Q.** And the Predicted response (rs8049452 genotype AA)?
**A.** Its Predicted response is “NR”.

**Q.** What about the “HR for time to events, dalcetrapib treatment arm versus placebo arm” value (rs8049452 genotype GA) of the same compound?
**A.** Its value is 0.97.

**Q.** What about the Predicted response (rs8049452 genotype GA) of the same compound?
**A.** The Predicted response was “PR”.

**Q.** What about the “HR for time to events, dalcetrapib treatment arm versus placebo arm” value (rs8049452 genotype GG) of the same compound?
**A.** Its value is 0.78.

**Q.** What about the Predicted response (rs8049452 genotype GG) of the same compound?
**A.** Its Predicted response is “R”.

**Q.** What about the “HR (95% CI) for time to events” value (rs8061182 AG vs AA) of the same compound?
**A.** Its value is 1.23 (0.98, 1.56).

**Q.** And the “HR (95% CI) for time to events” value (rs8061182 GG vs AA)?
**A.** The value was 1.81 (1.37, 2.39).

**Q.** And the “HR for time to events, dalcetrapib treatment arm versus placebo arm” value (rs8061182 genotype AA)?
**A.** The value was 0.79.
